Patent publication US20240124432A1, “HERBICIDAL COMPOUNDS” (SYNGENTA CROP PROTECTION AG, priority 2020, published 2024)

Experiments:
Assay type in all cases: in vivo
[1] = system: AMAPA; experiment: Pre-emergence biological efficacy; conditions: Amaranthus palmeri, 312 h, evaluated after 13 days, read-out: damage to plant (100=total damage to plant; 0=no damage to plant)
Procedure, shortened: (§1)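 Pre-emergence spray applied one day after sowing in standard soil, compound delivered from an IF50-based emulsifiable formulation diluted in 0.2% Genapol XO80. Plants then grew under glasshouse conditions for 13 days before damage was rated on a 0 (none) to 100 (total) scale.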

[2] = system: IPOHE; experiment: Pre-emergence biological efficacy; conditions: Ipomoea hederacea, 312 h, evaluated after 13 days, read-out: damage to plant (100=total damage to plant; 0=no damage to plant)
Procedure, shortened: as §1

[3] = system: SETFA; experiment: Pre-emergence biological efficacy; conditions: Setaria faberi, 312 h, evaluated after 13 days, read-out: damage to plant (100=total damage to plant; 0=no damage to plant)
Procedure, shortened: as §1

[4] = system: EPHHL; experiment: Pre-emergence biological efficacy; conditions: Euphorbia heterophylla, 312 h, evaluated after 13 days, read-out: damage to plant (100=total damage to plant; 0=no damage to plant)
Procedure, shortened: as §1

[5] = system: LOLPE; experiment: Pre-emergence biological efficacy; conditions: Lolium perenne, 312 h, evaluated after 13 days, read-out: damage to plant (100=total damage to plant; 0=no damage to plant)
Procedure, shortened: as §1

[6] = system: ECHCG; experiment: Pre-emergence biological efficacy; conditions: Echinochloa crus-galli, 312 h, evaluated after 13 days, read-out: damage to plant (100=total damage to plant; 0=no damage to plant)
Procedure, shortened: as §1

[7] = system: AMAPA; experiment: Post-emergence biological efficacy; conditions: Amaranthus palmeri, 312 h, evaluated after 13 days, read-out: damage to plant (100=total damage to plant; 0=no damage to plant)
Procedure, shortened: (§2)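 Damage was rated 13 days after treatment, from 0 (none) to 100 (total). Test compounds, formulated in IF50 and diluted with 0.2% Genapol XO80 to final dose, were sprayed on glasshouse plants raised for 14 days from seed.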

[8] = system: IPOHE; experiment: Post-emergence biological efficacy; conditions: Ipomoea hederacea, 312 h, evaluated after 13 days, read-out: damage to plant (100=total damage to plant; 0=no damage to plant)
Procedure, shortened: as §2

[9] = system: SETFA; experiment: Post-emergence biological efficacy; conditions: Setaria faberi, 312 h, evaluated after 13 days, read-out: damage to plant (100=total damage to plant; 0=no damage to plant)
Procedure, shortened: as §2

[10] = system: EPHHL; experiment: Post-emergence biological efficacy; conditions: Euphorbia heterophylla, 312 h, evaluated after 13 days, read-out: damage to plant (100=total damage to plant; 0=no damage to plant)
Procedure, shortened: as §2

[11] = system: ELEIN; experiment: Post-emergence biological efficacy; conditions: 312 h, evaluated after 13 days, read-out: damage to plant (100=total damage to plant; 0=no damage to plant)
Procedure, shortened: as §2

[12] = system: LOLPE; experiment: Post-emergence biological efficacy; conditions: Lolium perenne, 312 h, evaluated after 13 days, read-out: damage to plant (100=total damage to plant; 0=no damage to plant)
Procedure, shortened: as §2

[13] = system: DIGSA; experiment: Post-emergence biological efficacy; conditions: Digitaria sanguinalis, 312 h, evaluated after 13 days, read-out: damage to plant (100=total damage to plant; 0=no damage to plant)
Procedure, shortened: as §2

[14] = system: ECHCG; experiment: Post-emergence biological efficacy; conditions: Echinochloa crus-galli, 312 h, evaluated after 13 days, read-out: damage to plant (100=total damage to plant; 0=no damage to plant)
Procedure, shortened: as §2

[15] = system: CHEAL; experiment: Post-emergence biological efficacy; conditions: Chenopodium album, 312 h, evaluated after 13 days, read-out: damage to plant (100=total damage to plant; 0=no damage to plant)
Procedure, shortened: as §2

CCOC(=O)C1(C)CC(c2cc(-c3ncc(C(F)(F)F)cc3Br)c(F)cc2Cl)=NO1 (stereo not drawn) [Compound 1-571, Ethyl 3-[5-[3-bromo-5-(trifluoromethyl)-2-pyridyl]-2-chloro-4-fluoro-phenyl]-5-methyl-4H-isoxazole-5-carboxylate] was tested, and the pest or weed control at 250 g/ha [1] was 100%, the pest or weed control at 250 g/ha [2] was 0% and the pest or weed control at 250 g/ha [3] was 10%. The pest or weed control at 250 g/ha [4] was 0%, the pest or weed control at 250 g/ha [5] was 70% and the pest or weed control at 250 g/ha [6] was 10%. The pest or weed control at 250 g/ha [7] was 100%, the pest or weed control at 250 g/ha [8] was 70% and the pest or weed control at 250 g/ha [9] was 90%. The pest or weed control at 250 g/ha [10] was 100%, the pest or weed control at 250 g/ha [11] was 90% and the pest or weed control at 250 g/ha [12] was 90%. The pest or weed control at 250 g/ha [13] was 60%, the pest or weed control at 250 g/ha [14] was 30% and the pest or weed control at 250 g/ha [15] was 100%.
Compound CCOC(=O)C1(C)CC(c2cc(-c3ncc(C(F)F)cc3Cl)c(F)cc2Cl)=NO1 (stereo not drawn) [Compound 1-583, Ethyl 3-[2-chloro-5-[3-chloro-5-(difluoromethyl)-2-pyridyl]-4-fluoro-phenyl]-5-methyl-4H-isoxazole-5-carboxylate] has a pest or weed control at 250 g/ha [1] of 100%, a pest or weed control at 250 g/ha [2] of 60% and a pest or weed control at 250 g/ha [3] of 90%. The pest or weed control at 250 g/ha [4] was 100%, the pest or weed control at 250 g/ha [5] was 60% and the pest or weed control at 250 g/ha [6] was 90%. The pest or weed control at 250 g/ha [7] was 100%, the pest or weed control at 250 g/ha [8] was 100% and the pest or weed control at 250 g/ha [9] was 100%. It also gave a pest or weed control at 250 g/ha [10] of 100%, a pest or weed control at 250 g/ha [11] of 90% and a pest or weed control at 250 g/ha [12] of 100%. For the same compound, the pest or weed control at 250 g/ha [13] was 90%, the pest or weed control at 250 g/ha [14] was 100% and the pest or weed control at 250 g/ha [15] was 100%.
CCOC(=O)C1(C)CC(c2cc(-c3ncc(C(C)(F)F)cc3Cl)c(F)cc2Cl)=NO1 (stereo not drawn) [Compound 1-595, ethyl 3-[2-chloro-5-[3-chloro-5-(1,1-difluoroethyl)-2-pyridyl]-4-fluoro-phenyl]-5-methyl-4H-isoxazole-5-carboxylate] gave a pest or weed control at 250 g/ha [1] of 100%, a pest or weed control at 250 g/ha [2] of 80% and a pest or weed control at 250 g/ha [3] of 100%. It also gave a pest or weed control at 250 g/ha [4] of 100%, a pest or weed control at 250 g/ha [5] of 90% and a pest or weed control at 250 g/ha [6] of 100%. The pest or weed control at 250 g/ha [7] was 100%, the pest or weed control at 250 g/ha [8] was 100% and the pest or weed control at 250 g/ha [9] was 100%. For the same compound, the pest or weed control at 250 g/ha [10] was 100%, the pest or weed control at 250 g/ha [11] was 100% and the pest or weed control at 250 g/ha [12] was 100%. The pest or weed control at 250 g/ha [13] was 100%, the pest or weed control at 250 g/ha [14] was 100% and the pest or weed control at 250 g/ha [15] was 100%.
CCOC(=O)C1(C)CC(c2cc(-c3ncc(C#N)cc3Cl)c(F)cc2Cl)=NO1 (stereo not drawn) [Compound 1-607, Ethyl 3-[2-chloro-5-(3-chloro-5-cyano-2-pyridyl)-4-fluoro-phenyl]-5-methyl-4H-isoxazole-5-carboxylate] showed a pest or weed control at 250 g/ha [1] of 100%, a pest or weed control at 250 g/ha [2] of 30% and a pest or weed control at 250 g/ha [3] of 10%. It also gave a pest or weed control at 250 g/ha [4] of 50%, a pest or weed control at 250 g/ha [5] of 20% and a pest or weed control at 250 g/ha [6] of 70%. The pest or weed control at 250 g/ha [7] was 100%, the pest or weed control at 250 g/ha [8] was 100% and the pest or weed control at 250 g/ha [9] was 80%. For the same compound, the pest or weed control at 250 g/ha [10] was 100%, the pest or weed control at 250 g/ha [11] was 60% and the pest or weed control at 250 g/ha [12] was 70%. For the same compound, the pest or weed control at 250 g/ha [13] was 70%, the pest or weed control at 250 g/ha [14] was 40% and the pest or weed control at 250 g/ha [15] was 100%.
Compound CCOC(=O)C1(C)CC(c2cc(-c3ncc(C(C)=O)cc3Cl)c(F)cc2Cl)=NO1 (stereo not drawn) [Compound 1-631, Ethyl 3-[5-(5-acetyl-3-chloro-2-pyridyl)-2-chloro-4-fluoro-phenyl]-5-methyl-4H-isoxazole-5-carboxylate] has a pest or weed control at 250 g/ha [1] of 0%, a pest or weed control at 250 g/ha [2] of 0% and a pest or weed control at 250 g/ha [3] of 0%. For the same compound, the pest or weed control at 250 g/ha [4] was 0%, the pest or weed control at 250 g/ha [5] was 0% and the pest or weed control at 250 g/ha [6] was 0%. The pest or weed control at 250 g/ha [7] was 10%, the pest or weed control at 250 g/ha [8] was 40% and the pest or weed control at 250 g/ha [9] was 10%. For the same compound, the pest or weed control at 250 g/ha [10] was 20%, the pest or weed control at 250 g/ha [11] was 10% and the pest or weed control at 250 g/ha [12] was 0%. The pest or weed control at 250 g/ha [13] was 30%, the pest or weed control at 250 g/ha [14] was 40% and the pest or weed control at 250 g/ha [15] was 20%.
